Values quoted from earlier work in US9018178B2, “Method for the treatment of food, feed and agricultural products with a polyene antifungal compound” (DSM IP Assets B.V., priority 2007, dated 2015).

Tested on: common food spoilage yeasts and moulds
Details: most strains of common food spoilage yeasts and moulds

SMILES: C[C@@H]1C/C=C/C=C/C=C/C=C/[C@H](O[C@@H]2O[C@H](C)[C@@H](O)[C@H](N)[C@@H]2O)C[C@@H]2O[C@](O)(C[C@@H](O)C[C@H]3O[C@@H]3/C=C/C(=O)O1)C[C@H](O)[C@H]2C(=O)O [natamycin]
- Concentrations inhibiting most strains: 1-15 ppm
